Data taken from patent US20120196791A1, “COMBINATION THERAPIES USING ANTIBACTERIAL AMINOGLYCOSIDE COMPOUNDS” (Achaogen, Inc., priority 2009, published 2012).
Where two headings read alike, the source gives them in different places. Values belong to the compound of their own block, whether it stands above or below them.

Columns and labels:
P. aeruginosa strains = assay: MIC by macrodilution; type: cell-based; conditions: Pseudomonas aeruginosa
Excerpt: (§1) “MIC”, which stands for minimum inhibitory concentration, refers to that concentration, in μg/mL, of a compound of this invention that inhibits the growth and/or proliferation of a strain of bacteria by at least 80% compared to an untreated control as determined by visual inspection of a liquid culture.
Synergy time-kill was used to test the activity of Example 1, alone and in combination with cefepime, doripenem, imipenem and piperacillin/tazobactam, against 10 P. aeruginosa strains. The 10 clinical isolates included 5 cefepime resistant, 5 doripenem resistant, 8 imipenem resistant, and 9 piperacillin/tazobactam resistant strains. MICs were determined by macrodilution and time-kill was used to verify the activity of all five agents alone. MICs were predetermined by macrodilution in cation-adjusted Mueller-Hinton broth (BBL Microbiology Systems, Cockeysville, Md.) according to standard methodology. All strains were tested by time-kill methodology with each compound alone according to standard methods. Strains were examined by PCR for genes encoding aminoglycoside modifying enzymes (AMEs). Cultures were initiated by adding 35-μL aliquots of suspensions into 5 mL of broth. Viability counts (100-μL aliquots) in synergy tests were performed at 0, 3, 6, 12, and 24 h in a shaking water bath at 35° C. with final inocula of between 5×10^5 and 5×10^6 CFU/mL. Only plates with 30 to 300 colonies were counted.

S. aureus strains = assay: MIC by macrodilution; type: cell-based; conditions: Staphylococcus aureus
Excerpt: as §1
Synergy time-kill was used to test the activity of Example 1, alone and in combination with daptomycin (DAP), ceftobiprole (BPR), and linezolid (LZD), against 25 S. aureus strains. 25 clinical isolates included 2 hVISA, 2 VISA, and 5 VRSA, 10 hospital acquired and 6 community acquired MRSA strains. MICs were determined by macrodilution and time-kill was used to verify the activity of all four agents alone. MICs were predetermined by macrodilution in cation-adjusted Mueller-Hinton broth (BBL Microbiology Systems, Cockeysville, Md.) according to standard methodology. Daptomycin susceptibility testing was performed in Mueller-Hinton broth adjusted to 50 μg/mL of calcium according to standard methodology. All strains were tested by time-kill methodology with each compound alone according to standard methods. Cultures were initiated by adding 35-μL aliquots of suspensions into 5 mL of broth. Viability counts (100-μL aliquots) in synergy tests were performed at 0, 3, 6, 12, and 24 h in a shaking water bath at 35° C. with final inocula of between 5×10^5 and 5×10^6 CFU/mL. Only plates with 30 to 300 colonies were counted.

[1] = range over 10 P. aeruginosa strains, read-out: MICs of each agent alone

MIC (P. aeruginosa strains; Strain 1, read-out: MIC): 8 µg/mL
MIC (P. aeruginosa strains; Strain 2, read-out: MIC): 2 µg/mL
MIC (P. aeruginosa strains; Strain 3, read-out: MIC): 8 µg/mL
MIC (P. aeruginosa strains; Strain 4, read-out: MIC): 16 µg/mL
MIC (P. aeruginosa strains; Strain 5, read-out: MIC): 32 µg/mL
MIC (P. aeruginosa strains; Strain 6, read-out: MIC): 0.25 µg/mL
MIC (P. aeruginosa strains; Strain 7, read-out: MIC): 4 µg/mL
MIC (P. aeruginosa strains; Strain 8, read-out: MIC): 4 µg/mL
MIC (P. aeruginosa strains; Strain 9, read-out: MIC): 32 µg/mL
MIC (P. aeruginosa strains; Strain 10, read-out: MIC): 32 µg/mL
MIC (P. aeruginosa strains; [1]): 0.25 to 32 µg/mL
Compound: C[C@@H](O)[C@H]1C(=O)N2C(C(=O)O)=C(SCCN=CN)C[C@H]12 [Imipenem, imipenem]

Compound: CO/N=C(\C(=O)N[C@@H]1C(=O)N2C(C(=O)[O-])=C(C[N+]3(C)CCCC3)CS[C@H]12)c1csc(N)n1 [Cefepime, cefepime]
MIC (P. aeruginosa strains): 256 µg/mL
MIC (P. aeruginosa strains; Strain 1, read-out: MIC): 16 µg/mL
MIC (P. aeruginosa strains; Strain 2, read-out: MIC): 4 µg/mL
MIC (P. aeruginosa strains; Strain 3, read-out: MIC): 8 µg/mL
MIC (P. aeruginosa strains; Strain 4, read-out: MIC): 8 µg/mL
MIC (P. aeruginosa strains; Strain 5, read-out: MIC): 32 µg/mL
MIC (P. aeruginosa strains; Strain 6, read-out: MIC): 1 µg/mL
MIC (P. aeruginosa strains; Strain 7, read-out: MIC): 16 µg/mL
MIC (P. aeruginosa strains; Strain 8, read-out: MIC): 4 µg/mL
MIC (P. aeruginosa strains; Strain 9, read-out: MIC): 32 µg/mL
MIC (P. aeruginosa strains; [1]): 1 to 256 µg/mL

MIC (S. aureus strains; ATCC 33591 / MRSA, Strain 13, ATCC33591 HA-MRSA, read-out: MIC): 0.5 µg/mL
MIC (S. aureus strains; MRSA, Strain 6, CA-MRSA, PVL+, read-out: MIC): 0.5 µg/mL
MIC (S. aureus strains; MRSA, Strain 7, CA-MRSA, PVL+, read-out: MIC): 0.5 µg/mL
MIC (S. aureus strains; MRSA, Strain 8, CA-MRSA, PVL+, read-out: MIC): 0.5 µg/mL
MIC (S. aureus strains; MRSA, Strain 14, HA-MRSA, read-out: MIC): 0.25 µg/mL
MIC (S. aureus strains; MRSA, Strain 15, HA-MRSA, read-out: MIC): 0.5 µg/mL
MIC (S. aureus strains; MRSA, Strain 16, HA-MRSA, read-out: MIC): 1 µg/mL
MIC (S. aureus strains; MRSA, Strain 17, HA-MRSA, read-out: MIC): 0.5 µg/mL
MIC (S. aureus strains; MRSA, Strain 18, HA-MRSA, read-out: MIC): 0.5 µg/mL
MIC (S. aureus strains; MRSA, Strain 19, HA-MRSA, read-out: MIC): 0.5 µg/mL
MIC (S. aureus strains; MRSA, Strain 20, HA-MRSA, read-out: MIC): 0.5 µg/mL
MIC (S. aureus strains; MRSA, Strain 21, HA-MRSA, read-out: MIC): 0.5 µg/mL
MIC (S. aureus strains; MRSA, Strain 22, HA-MRSA, read-out: MIC): 0.5 µg/mL
MIC (S. aureus strains; MRSA, Strain 23, CA-MRSA PVL+, read-out: MIC): 1 µg/mL
MIC (S. aureus strains; MRSA, Strain 24, CA-MRSA PVL+, read-out: MIC): 0.5 µg/mL
MIC (S. aureus strains; MRSA, Strain 25, CA-MRSA PVL neg, read-out: MIC): 0.5 µg/mL
MIC (S. aureus strains; Strain 9, hVISA, read-out: MIC): 1 µg/mL
MIC (S. aureus strains; Strain 10, hVISA, read-out: MIC): 0.5 µg/mL
MIC (S. aureus strains; VISA, Strain 11, VISA, read-out: MIC): 4 µg/mL
MIC (S. aureus strains; VISA, Strain 12, VISA, read-out: MIC): 2 µg/mL
MIC (S. aureus strains; VRSA, Strain 1, VRSA, read-out: MIC): 0.5 µg/mL
MIC (S. aureus strains; VRSA, Strain 2, VRSA, read-out: MIC): 0.25 µg/mL
MIC (S. aureus strains; VRSA, Strain 3, VRSA, read-out: MIC): 0.5 µg/mL
MIC (S. aureus strains; VRSA, Strain 4, VRSA, read-out: MIC): 0.5 µg/mL
MIC (S. aureus strains; VRSA, Strain 5, VRSA, read-out: MIC): 0.25 µg/mL
MIC (S. aureus strains; range over 25 S. aureus strains, read-out: MICs of each agent alone): 0.25 to 4 µg/mL
Compound: CCCCCCCCCC(=O)N[C@@H](Cc1c[nH]c2ccccc12)C(=O)N[C@H](CC(N)=O)C(=O)N[C@@H](CC(=O)O)C(=O)N[C@@H]1C(=O)NCC(=O)N[C@@H](CCCN)C(=O)N[C@@H](CC(=O)O)C(=O)N[C@H](C)C(=O)N[C@@H](CC(=O)O)C(=O)NCC(=O)N[C@H](CO)C(=O)N[C@@H]([C@H](C)CC(=O)O)C(=O)N[C@@H](CC(=O)c2ccccc2N)C(=O)O[C@@H]1C [Daptomycin, daptomycin]
